The values below come from patent publication US20240376094A2, “SELECTIVE BCL-XL PROTAC COMPOUNDS AND METHODS OF USE” (Les Laboratoires Servier, priority 2021, published 2024).

pIC50: −log10 of the molar value.

Type in all cases: cell-based
The subject of one test is MOLT-4 cells. Kind of test: MOLT-4 cell viability, CTG assay. Particulars: Homo sapiens, MOLT-4, 48 h. An outline of the steps: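 Viability read as total ATP luminescence (CTG) after 48 h compound treatment, 11 points at 5-fold spacing in triplicate, cells in RPMI 1640/10% FBS. IC50 is the concentration halving signal relative to control, four-parameter fit, averaged over at least 2 experiments.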

For the next test, the target named is T1, HiBiT-tagged BCL-xL (Homo sapiens, UniProt Q07817).
T1 construct: expressed in transfected cells; host or cells: NCI-H1650 (ATCC No. CRL-5883), engineered HiBiT cell line
T1 sequence (Q07817 whole entry): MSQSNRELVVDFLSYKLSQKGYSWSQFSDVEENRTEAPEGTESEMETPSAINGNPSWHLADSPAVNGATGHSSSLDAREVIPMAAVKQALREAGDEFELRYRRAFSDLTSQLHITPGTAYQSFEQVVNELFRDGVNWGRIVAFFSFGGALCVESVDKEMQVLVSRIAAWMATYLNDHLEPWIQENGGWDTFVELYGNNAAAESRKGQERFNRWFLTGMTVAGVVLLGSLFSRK
Kind of test: NCI-H1650 BCL-xL protein levels, Nano-Glo HiBiT Lytic Detection. Particulars: NCI-H1650 expressing HiBiT-tagged BCL-xL, overnight incubation, read-out: Bcl-xl HIBIT NCIH1650 DC50. Summed up:
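HiBiT luminescence after cell lysis with LgBiT/furimazine reagent reported BCL-xL levels, expressed relative to untreated wells and fitted with a four-parameter logistic equation. Engineered NCI-H1650 cells were exposed overnight at 37° C to compound at final 0.508 nM-10 μM (10 points, triplicate plates).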
Background: With HiBiT, luminescence reflects the tagged protein that the partner subunit can reach.

For test [1], the system named is EBC-1 lung cancer cell line. Kind of test: EBC-1 cell proliferation, CellTiter-Glo assay. Particulars: Homo sapiens, 120 h; Ebc-1 cell viability, CTG assay, 5 days of treatment; read-out: CTG 5 day Ebc1 GI50. An outline of the steps: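 CellTiter-Glo read-out after 5-day compound treatment, normalised to untreated cells, with GI50 derived by four-parameter logistic regression. Ten concentrations spanning 0.508 nM–10 μM were added to 1000 EBC-1 cells per well the day after seeding. Assays required at least one cell doubling versus Day 0.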
(ATP-based viability assays read luminescence as a measure of living cells.)

In the next test the target is T2, Bcl-xL (Homo sapiens, UniProt Q07817).
T2 construct: Measured levels of Bcl-xL protein of HCT116 cells treated with the tested compounds; host or cells: HCT116
T2 sequence (Q07817 whole entry): as above
Kind of test: HCT116 Bcl-xL degradation, capillary-based immunoassay (WES). Particulars: HCT116, 24 h, 9-point serial dilution. An outline of the steps:
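Bcl-xL protein level by capillary WES immunoassay in HCT116 lysates, as % of untreated after cofilin normalization. Compound exposure was 24 h at 10 and 100 nM and/or a 9-point series, in quadruplicate. Four-parameter fitting gave the DC50.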

`Cc1ncsc1-c1ccc([C@H](C)NC(=O)[C@@H]2C[C@@H](O)CN2C(=O)[C@@H](NC(=O)COCCCCCCCCCN(C)CCOC23CC4(C)CC(C)(CC(Cn5ncc(-c6ccc(N7CCCc8c7nnc(Nc7nc9ccccc9s7)c8C)nc6C(=O)O)c5C)(C4)C2)C3)C(C)(C)C)cc1` [Example 109, 6-[3-(1,3-benzothiazol-2-ylamino)-4-methyl-6,7-dihydro-5H-pyrido[2,3-c]pyridazin-8-yl]-3-[1-[[3-[2-[9-[2-[[(1S)-1-[(2S,4R)-4-hydroxy-2-[[(1S)-1-[4-(4-methylthiazol-5-yl)phenyl]ethyl]carbamoyl]pyrrolidine-1-carbonyl]-2,2-dimethyl-propyl]amino]-2-oxo-ethoxy]nonyl-methyl-amino]ethoxy]-5,7-dimethyl-1-adamantyl]methyl]-5-methyl-pyrazol-4-yl]pyridine-2-carboxylic acid] showed a pIC50 in the test on MOLT-4 cells of 8.11. Further, the DC50 on HiBiT-tagged BCL-xL came to 1 nM; on Bcl-xL, 0.155 nM. In addition, the GI50 in test [1] worked out at 98 nM.
Taken in the same sequence, the figures for `Cc1ncsc1-c1ccc(CNC(=O)[C@@H]2C[C@@H](O)CN2C(=O)[C@@H](NC(=O)C2(F)CC2)C(C)(C)SCCCCCCCCCCN(C)CCOC23CC4(C)CC(C)(CC(Cn5ncc(-c6ccc(N7CCCc8c7nnc(Nc7nc9ccccc9s7)c8C)nc6C(=O)O)c5C)(C4)C2)C3)cc1` [Example 94, 6-[3-(1,3-benzothiazol-2-ylamino)-4-methyl-6,7-dihydro-5H-pyrido[2,3-c]pyridazin-8-yl]-3-[1-[[3-[2-[10-[(2R)-2-[(1-fluorocyclopropanecarbonyl)amino]-3-[(2S,4R)-4-hydroxy-2-[[4-(4-methylthiazol-5-yl)phenyl]methylcarbamoyl]pyrrolidin-1-yl]-1,1-dimethyl-3-oxo-propyl]sulfanyldecyl-methyl-amino]ethoxy]-5,7-dimethyl-1-adamantyl]methyl]-5-methyl-pyrazol-4-yl]pyridine-2-carboxylic acid] were 7.84, above 1670 nM, 1.06 nM and 112 nM.

In general, pIC50 refers to −log10 of the IC50, conventionally taken in molar units. Low values mean a large IC50, high ones a small IC50. For orientation: GI50 means the concentration giving 50% growth inhibition.
